According to patent US6147097A, “Imidazole derivatives as anti-HIV agents” (Shionogi & Co., Ltd., priority 1994, dated 2000):
≈ marks a conversion by molar mass, not a printed value. Where two headings read alike, the source gives them in different places.

Experiments:
HIV (HTLV-IIIB strain) = assay: microbe, parasite or virus in culture; format: cell-based; details: Human immunodeficiency virus 1, IIIB, MT4, 120 h
Method in brief: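 Protection from virus was read as viable-cell MTT conversion to formazan after 5 days at 37° C. The cultures contained MT-4 cells (3.5×10^4/well), compound dilutions and 60 pfu HIV per well.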

[1] = cytotoxicity in MT-4 cells (MTT, culture medium in place of HIV); format: cell-based; details: human
Method in brief: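 Uninfected readout: compound-treated MT-4 cultures, 3.5×10^4 cells/well, received medium in place of virus and were kept 5 days at 37° C. Viability measured by 1 h MTT reduction, solubilized formazan read at 560/690 nm relative to control wells.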

[2] = molecular target: T1, purified recombinant HIV-1 reverse transcriptase (Human immunodeficiency virus type 1 group M subtype B, UniProt P04585); assay: reverse transcriptase inhibition, poly(rA)/(dT) template primer, [3H]dTTP uptake; format: biochemical
T1 construct: purified recombinant HIV-1 reverse transcriptase; made in house; host or cells: Escherichia coli
Method in brief: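 Inhibition reported as percent reduction of [3H]dTTP incorporation relative to solvent control, after 1 h at 37 °C at pH 8.3. Recombinant RT from E. coli, poly(rA) template with oligo(dT) primer, 4 μM unlabeled dTTP as substrate; product collected on DEAE filter mats.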

[3] = MT-4 cells, 60 pfu HIV per well, 37° C., 5 days, MTT, Tables 1 and 2, read-out: EC50
[4] = MT-4 cells, no virus, 37° C., 5 days, MTT, Table 3, read-out: CC50

| Compound | EC50 (HIV (HTLV-IIIB strain); [3]) | CC50 at 120 h [1, 4] | IC50 [2] | CC50 at 120 h ([1]; mt-4 cells) | EC50 (HIV (HTLV-IIIB strain)) | IC50 ([2]; read-out: RT IC50, pH 8.3, 37° C., 1 hour, Tables 5 and 6) |
| --- | --- | --- | --- | --- | --- | --- |
| CC(C)c1nc(CNC(N)=O)n(C)c1Sc1cc(Cl)cc(Cl)c1 [Compound I-90, 5-(3,5-dichlorophenylthio)-4-isopropyl-1-methyl-2-ureidomethyl-1H-imidazole] | 0.13 µg/mL (≈ 0.348 µM) | 10 to 100 µg/mL (≈ 26.8 to 268 µM) | 6.7 µM | – | – | – |
| CC(C)c1nc(COC(N)=O)n(CCCc2ccccn2)c1Sc1cc(Cl)cc(Cl)c1 [Compound I-130, 2-carbamoyloxymethyl-5-(3,5-dichlorophenylthio)-4-isopropyl-1-(3-(2-pyridyl)propyl)-1H-imidazole] | < 0.008 µg/mL | – | 3.96 µM | 6.3 to 12.5 µg/mL (≈ 13.1 to 26.1 µM) | – | – |
| CC(C)c1nc(CO)n(Cc2cccc([N+](=O)[O-])c2)c1Sc1cc(Cl)cc(Cl)c1 [Compound 103b, 5-(3,5-dichlorophenylthio)-2-hydroxymethyl-4-isopropyl-1-(m-nitrobenzyl)-1H-imidazole] | 0.008 µg/mL (≈ 0.0177 µM) | – | 25 µM | 50 µg/mL (≈ 111 µM) | – | – |
| CCn1c(CCO)nc(C(C)C)c1Sc1cc(Cl)cc(Cl)c1 [Compound 123a, 2-[5-(3,5-dichlorophenylthio)-1-ethyl-4-isopropyl-1H-imidazol-2-yl]ethanol] | 0.0006 µg/mL (≈ 0.00167 µM) | – | 0.417 µM | 6.3 to 12.5 µg/mL (≈ 17.5 to 34.8 µM) | – | – |
| CC(C)c1nc(CCCO)n(Cc2ccncc2)c1Sc1cc(Cl)cc(Cl)c1 [Compound 137c, 3-(5-(3,5-dichlorophenylthio)-4-isopropyl-1-(pyridin-4-ylmethyl)-1H-imidazol-2-yl)-propan-1-ol] | 0.003 to 0.005 µg/mL (≈ 0.00687 to 0.0115 µM) | – | 0.71 µM | 6.3 to 12.5 µg/mL (≈ 14.4 to 28.6 µM) | – | – |
| CCn1c(COC(N)=O)nc(C(C)C)c1Sc1cccc(F)c1 [Compound I-57, 2-carbamoyloxymethyl-1-ethyl-5-(3-fluorophenylthio)-4-isopropylethyl-1H-imidazole] | – | 25 to 50 µg/mL (≈ 74.1 to 148 µM) | – | – | 0.0005 to 0.001 µg/mL (≈ 0.00148 to 0.00296 µM) | 0.119 µM |
| CCn1c(CCCO)nc(C(C)C)c1Sc1cc(Cl)cc(Cl)c1 [Compound 137b, 3-(5-(3,5-dichlorophenylthio)-1-ethyl-4-isopropyl-1H-imidazol-2-yl)-propan-1-ol] | 0.005 to 0.01 µg/mL (≈ 0.0134 to 0.0268 µM) | – | 0.991 µM | 6.3 to 12.5 µg/mL (≈ 16.9 to 33.5 µM) | – | – |
| CC(C)c1nc(CO)n(Cc2ccc(N)cc2)c1Sc1cc(Cl)cc(Cl)c1 [Compound 104a, 1-(p-aminobenzyl)-5-(3,5-dichlorophenylthio)-2-hydroxymethyl-4-isopropyl-1H-imidazole] | < 0.008 µg/mL | – | 3.08 µM | 12.5 to 25 µg/mL (≈ 29.6 to 59.2 µM) | – | – |
| CC(C)c1nc(COC(N)=O)n(Cc2ccc(=O)[nH]c2)c1Sc1cc(Cl)cc(Cl)c1 [Compound I-131, 2-carbamoyloxymethyl-5-(3,5-dichlorophenylthio)-1-(6-oxo-1,6-dihydro-pyridin-3-yl)methyl-4-isopropyl-1H-imidazoles] | 0.003 µg/mL (≈ 0.00642 µM) | – | 2.78 µM | 38.8 µg/mL (≈ 83 µM) | – | – |
| CC(C)c1c(Sc2cccc(Cl)c2)nc(CO)n1C [Compound I-38, [4-(3-chlorophenylthio)-5-isopropyl-1-methyl-1H-imidazol-2-yl]methanol] | 6.3 µg/mL (≈ 21.2 µM) | 12.5 to 25 µg/mL (≈ 42.1 to 84.2 µM) | 273 µM | – | – | – |
| CC(C)c1nc(CO)n(CF)c1Sc1cc(Cl)cc(Cl)c1 [Compound I-34, [1-fluoromethyl-5-(3,5-dichlorophenylthio)-4-isopropyl-1H-imidazol-2-yl]methanol] | 0.006 µg/mL (≈ 0.0172 µM) | – | 4.01 µM | 13.5 µg/mL (≈ 38.7 µM) | – | – |
| CC(C)c1nc(COC(N)=O)n(C)c1Sc1cc(Cl)cc(Cl)c1 [Compound I-41, 2-carbamoyloxymethyl-5-(3,5-dichlorophenylthio)-4-isopropyl-1-methyl-1H-imidazole] | – | – | 1.34 µM | 8.5 µg/mL (≈ 22.7 µM) | 0.016 µg/mL (≈ 0.0427 µM) | – |
| CC(C)c1nc(CCCOCc2ccccc2)n(CCO)c1Sc1cc(Cl)cc(Cl)c1 [Compound 136e, 2-(2-(3-benzyloxypropyl)-5-(3,5-dichlorophenylthio)-4-isopropyl-1H-imidazol-1-yl)-ethanol] | 0.5 to 1 µg/mL (≈ 1.04 to 2.09 µM) | – | > 209 µM | 6.3 to 12.5 µg/mL (≈ 13.1 to 26.1 µM) | – | – |
| CC(C)c1nc(CO)n(Cc2ccc([N+](=O)[O-])cc2)c1Sc1cc(Cl)cc(Cl)c1 [Compound 103a, 5-(3,5-dichlorophenylthio)-2-hydroxymethyl-4-isopropyl-1-(p-nitrobenzyl)-1H-imidazole] | < 0.008 µg/mL | – | 28.7 µM | 6.3 to 12.5 µg/mL (≈ 13.9 to 27.6 µM) | – | – |
| CC(C)c1nc(CCOC(N)=O)n(Cc2ccc(N)cc2)c1Sc1cc(Cl)cc(Cl)c1 [Compound I-140, 1-(p-aminobenzyl)-2-(2-carbamoyloxyethyl)-5-(3,5-dichlorophenylthio)-4-isopropyl-1H-imidazole] | 0.03 to 0.06 µg/mL (≈ 0.0626 to 0.125 µM) | – | 29.8 µM | 6.3 to 12.5 µg/mL (≈ 13.1 to 26.1 µM) | – | – |
| CC(C)c1nc(CC(N)=O)n(C)c1Sc1cc(Cl)cc(Cl)c1 [Compound I-135, 2-[5-(3,5-dichlorophenylthio)-4-isopropyl-1-methyl-1H-imidazol-2-yl] acetamide] | 0.016 to 0.03 µg/mL (≈ 0.0447 to 0.0837 µM) | – | 10.6 µM | 25 to 50 µg/mL (≈ 69.8 to 140 µM) | – | – |
| CC(C)c1nc(COC(N)=O)n(CCOC(N)=O)c1Sc1cc(Cl)cc(Cl)c1 [Compound I-134, 1-(2-carbamoyloxyethyl)-2-carbamoyloxymethyl-5-(3,5-dichlorophenylthio)-4-isopropyl-1H-imidazole] | 0.0013 µg/mL (≈ 0.00291 µM) | – | 1.54 µM | 12.5 to 25 µg/mL (≈ 27.9 to 55.9 µM) | – | – |
| CC(C)c1nc(CO)n(Cc2ccccc2)c1Sc1cccc(Cl)c1 [Compound I-20, [1-benzyl-5-(3-chlorophenylthio)-4-isopropyl-1H-imidazol-2-yl]methanol] | 0.008 µg/mL (≈ 0.0215 µM) | 6.3 to 12.5 µg/mL (≈ 16.9 to 33.5 µM) | 5.63 µM | – | – | – |
| CC(C)c1nc(CCOC(N)=O)n(Cc2cccc(N)c2)c1Sc1cc(Cl)cc(Cl)c1 [Compound I-142, 1-(m-aminobenzyl)-2-(2-carbamoyloxyethyl)-5-(3,5-dichlorophenylthio)-4-isopropyl-1H-imidazole] | 0.016 to 0.03 µg/mL (≈ 0.0334 to 0.0626 µM) | – | 25 µM | 6.3 to 12.5 µg/mL (≈ 13.1 to 26.1 µM) | – | – |
| CC(C)c1nc(CO)n(CCCCCCc2ccccc2)c1Sc1cc(Cl)cc(Cl)c1 [Compound I-125, 5-(3,5-dichlorophenylthio)-2-hydroxylmethyl-4-isopropyl-1-(6-phenlylhexyl)-1H-imidazole] | 0.5 to 1 µg/mL (≈ 1.05 to 2.09 µM) | – | > 209 µM | 12.5 µg/mL (≈ 26.2 µM) | – | – |
| CC(C)c1nc(CCOC(N)=O)n(Cc2ccccc2[N+](=O)[O-])c1Sc1cc(Cl)cc(Cl)c1 [Compound 128c, 2-(2-Carbamoyloxyethyl)-5-(3,5-dichlorophenylthio)-4-isopropyl-1-(o-nitrobenzyl)-1H-imidazole] | 0.25 µg/mL (≈ 0.491 µM) | – | > 196 µM | 6.3 to 12.5 µg/mL (≈ 12.4 to 24.5 µM) | – | – |
| C=CCn1c(CO)nc(C(C)C)c1Sc1cccc([N+](=O)[O-])c1 [Compound I-22, [1-allyl-4-isopropyl-5-(3-nitrophenylthio)-1H-imidazol-2-yl]methanol] | – | 25 µg/mL (≈ 75 µM) | 1.68 µM | – | 0.002 µg/mL (≈ 0.006 µM) | – |
| CNC(=S)NCc1nc(C(C)C)c(Sc2cc(Cl)cc(Cl)c2)n1C [Compound I-89, 5-(3,5-dichlorophenylthio)-4-isopropyl-1-methyl-2-(N-methylthiocarbamoyl)aminomethyl-1H-imidazole] | 1 µg/mL (≈ 2.48 µM) | 1 to 10 µg/mL (≈ 2.48 to 24.8 µM) | > 248 µM | – | – | – |
| CCCn1c(CO)nc(C(C)C)c1Sc1cc(Cl)cc(Cl)c1 [Compound I-26, [5-(3,5-dichlorophenylthio)-4-isopropyl-1-n-propyl-1H-imidazol-2-yl]methanol] | – | 10 to 100 µg/mL (≈ 27.8 to 278 µM) | 2.53 µM | – | 0.004 to 0.008 µg/mL (≈ 0.0111 to 0.0223 µM) | – |
